Common to all, as to format: biochemical
Assay [1] addresses JAK1 (Homo sapiens (Human), UniProt P23458). Put plainly: JAK enzymatic assay (peptide mobility shift), JAK1. Particulars: recombinant JAK1 20 nM, IRS-1 peptide, 240 minutes.
Assay [2] deals with JAK2 (Homo sapiens (Human), UniProt O60674). Put plainly: JAK enzymatic assay (peptide mobility shift), JAK2. Particulars: recombinant JAK2 2 nM, JAKtide peptide, 150 minutes.
Assay [3] deals with JAK3 (Homo sapiens (Human), UniProt P52333). Briefly: JAK enzymatic assay (peptide mobility shift), JAK3. The following applies: recombinant JAK3 1 nM, JAKtide peptide, 90 minutes.
Sequence of JAK3 (P52333 781-1124): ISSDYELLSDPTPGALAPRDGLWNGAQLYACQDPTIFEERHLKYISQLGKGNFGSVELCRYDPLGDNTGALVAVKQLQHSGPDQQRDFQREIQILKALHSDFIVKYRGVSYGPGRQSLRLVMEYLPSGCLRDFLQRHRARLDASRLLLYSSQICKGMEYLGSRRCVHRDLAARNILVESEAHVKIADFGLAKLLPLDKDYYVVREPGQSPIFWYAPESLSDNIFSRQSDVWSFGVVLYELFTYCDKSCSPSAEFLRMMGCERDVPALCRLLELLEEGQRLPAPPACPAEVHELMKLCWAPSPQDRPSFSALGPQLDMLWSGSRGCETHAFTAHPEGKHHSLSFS

Sequence of JAK1 (P23458 whole entry): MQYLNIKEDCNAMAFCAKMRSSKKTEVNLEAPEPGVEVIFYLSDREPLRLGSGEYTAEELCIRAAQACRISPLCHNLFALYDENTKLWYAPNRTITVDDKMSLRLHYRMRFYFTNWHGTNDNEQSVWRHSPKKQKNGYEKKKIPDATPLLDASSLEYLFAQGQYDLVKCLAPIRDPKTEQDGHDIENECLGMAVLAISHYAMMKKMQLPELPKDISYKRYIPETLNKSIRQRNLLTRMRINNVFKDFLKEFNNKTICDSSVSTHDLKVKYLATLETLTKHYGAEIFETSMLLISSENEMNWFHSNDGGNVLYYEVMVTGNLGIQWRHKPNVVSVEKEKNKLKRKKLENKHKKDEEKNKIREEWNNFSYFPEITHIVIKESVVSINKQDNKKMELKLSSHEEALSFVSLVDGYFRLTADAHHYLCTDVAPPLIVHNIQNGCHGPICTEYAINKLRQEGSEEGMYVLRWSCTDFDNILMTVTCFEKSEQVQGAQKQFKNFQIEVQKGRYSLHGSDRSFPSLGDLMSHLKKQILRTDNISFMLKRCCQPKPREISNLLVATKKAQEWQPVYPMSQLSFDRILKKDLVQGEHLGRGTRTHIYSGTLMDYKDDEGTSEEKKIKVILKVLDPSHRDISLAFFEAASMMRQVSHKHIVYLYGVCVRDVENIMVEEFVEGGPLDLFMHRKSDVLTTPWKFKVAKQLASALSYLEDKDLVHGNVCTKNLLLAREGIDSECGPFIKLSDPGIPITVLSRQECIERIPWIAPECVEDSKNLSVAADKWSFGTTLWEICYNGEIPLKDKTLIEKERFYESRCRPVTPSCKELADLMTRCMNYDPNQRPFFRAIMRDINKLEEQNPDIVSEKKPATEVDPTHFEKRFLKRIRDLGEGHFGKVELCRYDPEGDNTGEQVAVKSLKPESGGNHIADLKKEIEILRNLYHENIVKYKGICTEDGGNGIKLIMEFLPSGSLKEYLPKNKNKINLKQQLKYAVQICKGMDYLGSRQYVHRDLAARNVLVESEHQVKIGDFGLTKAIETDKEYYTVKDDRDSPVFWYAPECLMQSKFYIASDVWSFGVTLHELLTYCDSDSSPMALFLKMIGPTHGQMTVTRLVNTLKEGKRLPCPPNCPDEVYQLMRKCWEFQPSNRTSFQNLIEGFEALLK
Sequence of JAK2 (O60674 808-1132): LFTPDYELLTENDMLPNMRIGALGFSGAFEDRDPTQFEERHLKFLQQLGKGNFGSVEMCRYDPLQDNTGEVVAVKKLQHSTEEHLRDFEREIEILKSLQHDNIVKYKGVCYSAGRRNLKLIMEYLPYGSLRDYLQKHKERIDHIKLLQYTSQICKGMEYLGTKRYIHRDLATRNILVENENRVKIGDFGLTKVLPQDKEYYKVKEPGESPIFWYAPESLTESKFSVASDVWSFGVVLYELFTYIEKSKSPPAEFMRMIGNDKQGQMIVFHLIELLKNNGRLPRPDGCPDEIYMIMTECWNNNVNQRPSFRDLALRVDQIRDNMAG

In the case of `CO[C@@H]1CCCN(S(=O)(=O)C[C@H]2CC[C@H](N(C)c3ncnc4[nH]ccc34)CC2)C1` [Example 60, N-(trans-4-{[(3-methoxy-piperidin-1-yl)sulfonyl]-methyl}cyclohexyl)-N-methyl-7H-pyrrolo[2,3-d]-pyrimidin-4-amine], the IC50 in assay [1] was 1.7 nM; in assay [2] it was 23.7 nM; in assay [3], 203 nM.
As for `C[C@H]1CCCN(S(=O)(=O)C[C@H]2CC[C@H](N(C)c3ncnc4[nH]ccc34)CC2)C1` [Example 61, N-methyl-N-(trans-4-{[(3-methylpiperidin-1-yl)sulfonyl]methyl}cyclo-hexyl)-7H-pyrrolo[2,3-d]-pyrimidin-4-amine], the half-maximal inhibitory concentration (IC50) was 10.8 nM in assay [1], 72.2 nM in assay [2] and 851 nM in assay [3].
In the case of `CN(c1ncnc2[nH]ccc12)[C@H]1CC[C@H](CS(=O)(=O)N2CCC[C@H](CO)C2)CC1` [Example 62, {1-[({trans-4-[methyl(7H-pyrrolo[2,3-d]pyrimidin-4-yl)amino]cyclohexyl}-methyl)sulfonyl]piperidin-3-yl}methanol], the IC50 was 2.4 nM in assay [1], 20.1 nM in assay [2] and 233 nM in assay [3].
For the molecule `CN(c1ncnc2[nH]ccc12)[C@H]1CC[C@H](CS(=O)(=O)N2CCC[C@@](C)(CO)C2)CC1` [Example 63, {3-methyl-1-[({trans-4-[methyl(7H-pyrrolo[2,3-d]-pyrimidin-4-yl)amino]-cyclohexyl}methyl)sulfonyl]piperidin-3-yl}methanol], the IC50 in assay [1] was 8.88 nM; in assay [2], 50.7 nM; in assay [3], 554 nM.
Consider `CN(c1ncnc2[nH]ccc12)[C@H]1CC[C@H](CS(=O)(=O)N2CCC[C@H](C#N)C2)CC1` [Example 64, 1-[({trans-4-[methyl(7H-pyrrolo[2,3-d]pyrimidin-4-yl)amino]cyclohexyl}-methyl)sulfonyl]piperidine-3-carbonitrile], for which the values for the IC50 in assay [1], in assay [2] and in assay [3] were 2.71 nM, 32.1 nM and 263 nM, respectively.
`CN(c1ncnc2[nH]ccc12)[C@H]1CC[C@H](CS(=O)(=O)N2CCC[C@@](C)(O)C2)CC1` [Example 65, 3-methyl-1-[({trans-4-[methyl(7H-pyrrolo[2,3-d]-pyrimidin-4-yl)amino]-cyclohexyl}methyl)sulfonyl] piperidin-3-ol]: the half-maximal inhibitory concentration (IC50) came to 7.6 nM in assay [1], 40.9 nM in assay [2] and 431 nM in assay [3].
For `CN(c1ncnc2[nH]ccc12)[C@H]1CC[C@H](CS(=O)(=O)N2CCC[C@H](CS(N)(=O)=O)C2)CC1` [Example 66, 1-{1-[({trans-4-[methyl(7H-pyrrolo[2,3-d]pyrimidin-4-yl)amino]cyclohexyl}-methyl)sulfonyl]piperidin-3-yl}-methanesulfonamide] the same measures were 3.1 nM, 22 nM and 128 nM.
In the case of `CN(c1ncnc2[nH]ccc12)[C@H]1CC[C@H](CS(=O)(=O)N2CCC[C@H](CS(C)(=O)=O)C2)CC1` [Example 67, N-methyl-N-{trans-4-[({3-[(methylsulfonyl)methyl]-piperidin-1-yl}sulfonyl)-methyl]cyclohexyl}-7H-pyrrolo[2,3-d]pyrimidin-4-amine], the IC50 in assay [1] was found to be 20.6 nM; in assay [2], 92.2 nM; in assay [3] it was 573 nM.
Take `CO[C@@H]1CCN(S(=O)(=O)C[C@H]2CC[C@H](N(C)c3ncnc4[nH]ccc34)CC2)C1` [Example 68, N-[trans-4-({[(3R)-3-methoxypyrrolidin-1-yl]sulfonyl}methyl)cyclo-hexyl]-N-methyl-7H-pyrrolo[2,3-d]pyrimidin-4-amine]: the IC50 in assay [1] turned out to be 11.9 nM; in assay [2], 41.8 nM; in assay [3], 468 nM.
For `COC[C@H]1CCCN1S(=O)(=O)C[C@H]1CC[C@H](N(C)c2ncnc3[nH]ccc23)CC1` [Example 69, N-[trans-4-({[(2R)-2-(methoxymethyl)pyrrolidin-1-yl]sulfonyl}methyl)-cyclohexyl]-N-methyl-7H-pyrrolo[2,3-d]pyrimidin-4-amine] the same measures were 9.55 nM, 56.2 nM and 370 nM.
For `CN(c1ncnc2[nH]ccc12)[C@H]1CC[C@H](CS(=O)(=O)N2CC[C@H](F)C2)CC1` [Example 70, N-[trans-4-({[(3S)-3-fluoropyrrolidin-1-yl]sulfonyl}methyl)cyclo-hexyl]-N-methyl-7H-pyrrolo[2,3-d]pyrimidin-4-amine] the same measures were 20.8 nM, 36.4 nM and 319 nM.
With `CN(c1ncnc2[nH]ccc12)[C@H]1CC[C@H](CS(=O)(=O)N2C[C@@H](O)[C@@H](O)C2)CC1` [Example 71, (3R,4S)-1-[({trans-4-[methyl(7H-pyrrolo[2,3-d]-pyrimidin-4-yl)amino]-cyclohexyl}methyl)sulfonyl] pyrrolidine-3,4-diol], the concentration for half-maximal inhibition (IC50) in assay [1] came out at 2.52 nM; in assay [2], 8.54 nM; in assay [3], 80.8 nM.
Regarding `CN(c1ncnc2[nH]ccc12)[C@H]1CC[C@H](CS(=O)(=O)N2C[C@@H](O)[C@H](O)C2)CC1` [Example 72, (3R,4R)-1-[({trans-4-[methyl(7H-pyrrolo[2,3-d]-pyrimidin-4-yl)amino]-cyclohexyl}methyl)sulfonyl] pyrrolidine-3,4-diol], the 50% inhibitory concentration (IC50) in assay [1] was 5.92 nM; in assay [2], 39.6 nM; in assay [3] it was 173 nM.
Regarding `COC[C@@H]1CCN(S(=O)(=O)C[C@H]2CC[C@H](N(C)c3ncnc4[nH]ccc34)CC2)C1` [Example 73, N-[trans-4-({[3-(methoxy-methyl)pyrrolidin-1-yl]-sulfonyl}methyl)-cyclohexyl]-N-methyl-7H-pyrrolo[2,3-d]pyrimidin-4-amine], the IC50 in assay [1] came to 1.69 nM; in assay [2] it was 22.5 nM; in assay [3], 138 nM.
With `CC[C@@]1(CO)CCN(S(=O)(=O)C[C@H]2CC[C@H](N(C)c3ncnc4[nH]ccc34)CC2)C1` [Example 74, {3-ethyl-1-[({trans-4-[methyl(7H-pyrrolo[2,3-d]-pyrimidin-4-yl)amino]-cyclohexyl}methyl)sulfonyl]-pyrrolidin-3-yl}methanol], the figures for the half-inhibitory concentration (IC50) in assay [1], in assay [2] and in assay [3] were 17.3 nM, 55.2 nM and 495 nM, respectively.
For `CN(c1ncnc2[nH]ccc12)[C@H]1CC[C@H](CS(=O)(=O)N2CC[C@H](NC(=O)C(F)(F)F)C2)CC1` [Example 75, 2,2,2-trifluoro-N-{(3S)-1-[({trans-4-[methyl(7H-pyrrolo[2,3-d]pyrimidin-4-yl)amino]cyclohexyl}methyl)-sulfonyl]pyrrolidin-3-yl}acetamide] the same measures were 19.1 nM, 62.2 nM and 399 nM.
Regarding `CN(c1ncnc2[nH]ccc12)[C@H]1CC[C@H](CS(=O)(=O)N2CC[C@H](S(C)(=O)=O)C2)CC1` [Example 76, N-methyl-N-[trans-4-({[3-(methylsulfonyl)pyrrolidin-1-yl]sulfonyl}methyl)-cyclohexyl]-7H-pyrrolo[2,3-d]pyrimidin-4-amine], the IC50 in assay [1] stood at 2.98 nM; in assay [2], 27.2 nM; in assay [3] it was 125 nM.
For `CN(C)C(=O)CO[C@@H]1CCN(S(=O)(=O)C[C@H]2CC[C@H](N(C)c3ncnc4[nH]ccc34)CC2)C1` [Example 77, N,N-dimethyl-2-({(3R)-1-[({trans-4-[methyl(7H-pyrrolo[2,3-d]pyrimidin-4-yl)amino]cyclohexyl}-methyl)sulfonyl]pyrrolidin-3-yl}oxy)acetamide] the same measures were 10.1 nM, 50.2 nM and 644 nM.
Take `CN(c1ncnc2[nH]ccc12)[C@H]1CC[C@H](CS(=O)(=O)N2C[C@@H](F)[C@H](F)C2)CC1` [Example 78, N-[trans-4-({[(3R,4R)-3,4-difluoropyrrolidin-1-yl]sulfonyl}methyl)cyclo-hexyl]-N-methyl-7H-pyrrolo[2,3-d]pyrimidin-4-amine]: the half-inhibitory concentration (IC50) is 13.8 nM in assay [1], 34.3 nM in assay [2] and 275 nM in assay [3].
`CN(c1ncnc2[nH]ccc12)[C@H]1CC[C@H](CS(=O)(=O)N2C[C@](C)(CO)[C@](C)(CO)C2)CC1` [Example 79, {(3R,4S)-3,4-dimethyl-1-[({trans-4-[methyl(7H-pyrrolo[2,3-d]pyrimidin-4-yl)amino]cyclohexyl}methyl)-sulfonyl]pyrrolidine-3,4-diyl}dimethanol]: the results for the IC50 in assay [1], in assay [2] and in assay [3] were 14.4 nM, 55.6 nM and 580 nM, respectively.
As for `C[C@H]1CN(S(=O)(=O)C[C@H]2CC[C@H](N(C)c3ncnc4[nH]ccc34)CC2)C[C@@H]1CO` [Example 80, {(3R,4R)-4-methyl-1-[({trans-4-[methyl(7H-pyrrolo[2,3-d]pyrimidin-4-yl)amino]cyclohexyl}-methyl)sulfonyl]pyrrolidin-3-yl}methanol], the IC50 stood at 3.03 nM in assay [1], 18.5 nM in assay [2] and 205 nM in assay [3].
For the molecule `CNS(=O)(=O)[C@H]1CCN(S(=O)(=O)C[C@H]2CC[C@H](N(C)c3ncnc4[nH]ccc34)CC2)C1` [Example 81, N-methyl-1-[({trans-4-[methyl(7H-pyrrolo[2,3-d]-pyrimidin-4-yl)amino]-cyclohexyl}methyl)sulfonyl] pyrrolidine-3-sulfonamide], the values for the half-maximal inhibitory concentration (IC50) in assay [1], in assay [2] and in assay [3] were 2.78 nM, 24.8 nM and 90.6 nM, respectively.
In the case of `CN(c1ncnc2[nH]ccc12)[C@H]1CC[C@H](CS(=O)(=O)N2CC[C@H](S(=O)(=O)Cc3ccccc3)C2)CC1` [Example 82, N-[trans-4-({[3-(benzyl-sulfonyl)pyrrolidin-1-yl]sulfonyl}-methyl)-cyclohexyl]-N-methyl-7H-pyrrolo[2,3-d]pyrimidin-4-amine], the IC50 in assay [1] was 7.34 nM; in assay [2] it was 17.4 nM; in assay [3], 146 nM.

Source of the values: patent publication US8633206B2, “Pyrrolo[2,3-D]pyrimidine compounds” (Pfizer Inc., priority 2009, dated 2014).
